Laboratory results published in patent publication US20100173968A1, “SUB-TYPE SELECTIVE AZABICYCLOALKANE DERIVATIVES” (TARGACEPT, INC., priority 2007, published 2010).
Counter-ions that a name gives are not always drawn. Like-named read-outs stand apart in the source and are kept apart here.

Columns and labels:
α4β2 nAChR Subtype = α4β2 nAChR Subtype (Rattus norvegicus, UniProt P09483+P12390); assay: Radioligand binding at α4β2 nAChR subtype, inhibition of [3H]nicotine binding, rat cerebral cortex membranes; conditions: [3H]nicotine 5 nM
α4β2 nAChR Subtype, sequence (P09483 31-630): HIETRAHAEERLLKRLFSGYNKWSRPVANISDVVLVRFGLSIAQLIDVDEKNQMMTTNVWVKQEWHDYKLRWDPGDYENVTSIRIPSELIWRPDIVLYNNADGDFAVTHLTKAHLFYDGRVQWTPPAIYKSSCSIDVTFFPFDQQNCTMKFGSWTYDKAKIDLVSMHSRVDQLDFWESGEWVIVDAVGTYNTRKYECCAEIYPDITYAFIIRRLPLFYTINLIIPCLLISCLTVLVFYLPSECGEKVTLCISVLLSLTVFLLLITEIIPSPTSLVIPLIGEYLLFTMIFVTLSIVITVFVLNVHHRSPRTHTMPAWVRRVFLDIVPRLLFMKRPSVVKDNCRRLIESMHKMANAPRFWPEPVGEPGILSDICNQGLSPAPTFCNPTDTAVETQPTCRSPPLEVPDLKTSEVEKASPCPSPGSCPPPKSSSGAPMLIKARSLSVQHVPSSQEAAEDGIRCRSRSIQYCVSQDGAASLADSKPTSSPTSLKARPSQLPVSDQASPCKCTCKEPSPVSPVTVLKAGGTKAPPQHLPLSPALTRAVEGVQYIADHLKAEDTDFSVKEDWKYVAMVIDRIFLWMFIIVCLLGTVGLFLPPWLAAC
α4β2 nAChR Subtype, sequence (P12390 25-500): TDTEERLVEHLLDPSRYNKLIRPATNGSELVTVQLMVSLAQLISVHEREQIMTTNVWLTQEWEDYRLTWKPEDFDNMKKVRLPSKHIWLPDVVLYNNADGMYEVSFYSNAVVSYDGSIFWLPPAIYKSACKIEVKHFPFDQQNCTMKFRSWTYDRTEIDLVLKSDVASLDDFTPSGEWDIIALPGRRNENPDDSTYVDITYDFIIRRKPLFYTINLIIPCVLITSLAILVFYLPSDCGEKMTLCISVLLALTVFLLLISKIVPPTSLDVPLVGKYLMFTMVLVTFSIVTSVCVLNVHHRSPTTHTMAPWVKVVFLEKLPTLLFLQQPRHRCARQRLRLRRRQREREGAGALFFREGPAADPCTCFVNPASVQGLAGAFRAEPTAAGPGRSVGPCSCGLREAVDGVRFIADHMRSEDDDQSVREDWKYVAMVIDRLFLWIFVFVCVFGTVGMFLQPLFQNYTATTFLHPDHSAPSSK
Procedure: The [^3H]nicotine (Specific Activity=81.5 Ci/mmol) was obtained from NEN Research Products. The binding of [^3H]nicotine was measured using a 3 h incubation at 4° C. […] Each filter was washed with ice-cold buffer (3×1 mL).
Each concentration was replicated in triplicate.

α7 nAChR Subtype = α7 nAChR Subtype (Rattus norvegicus, UniProt Q05941); assay: Radioligand binding at α7 nAChR subtype, inhibition of [3H]MLA binding, rat hippocampus membranes (HTS at 5 μM, then Ki); conditions: for inhibition at 5 µM: read-out: α7 HTS outcome (α7 Ki)
α7 nAChR Subtype, sequence (Q05941 23-502): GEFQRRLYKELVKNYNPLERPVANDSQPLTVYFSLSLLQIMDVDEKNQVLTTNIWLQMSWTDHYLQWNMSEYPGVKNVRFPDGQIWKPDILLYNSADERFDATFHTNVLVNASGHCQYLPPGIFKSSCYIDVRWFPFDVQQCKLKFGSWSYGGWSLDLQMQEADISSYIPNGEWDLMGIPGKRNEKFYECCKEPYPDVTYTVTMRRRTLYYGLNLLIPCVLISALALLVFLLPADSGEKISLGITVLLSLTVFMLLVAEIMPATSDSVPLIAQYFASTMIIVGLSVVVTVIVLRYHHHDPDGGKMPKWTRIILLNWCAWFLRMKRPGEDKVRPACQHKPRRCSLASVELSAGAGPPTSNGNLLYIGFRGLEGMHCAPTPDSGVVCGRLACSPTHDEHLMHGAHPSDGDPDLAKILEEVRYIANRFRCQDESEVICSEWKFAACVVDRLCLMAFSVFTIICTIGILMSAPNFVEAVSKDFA

Human α4β2 = Human α4β2 (Homo sapiens, UniProt P17787+P43681); assay: Binding at human α4β2 (Ki); method not described
Human α4β2, sequence (P43681 29-627 limits assumed): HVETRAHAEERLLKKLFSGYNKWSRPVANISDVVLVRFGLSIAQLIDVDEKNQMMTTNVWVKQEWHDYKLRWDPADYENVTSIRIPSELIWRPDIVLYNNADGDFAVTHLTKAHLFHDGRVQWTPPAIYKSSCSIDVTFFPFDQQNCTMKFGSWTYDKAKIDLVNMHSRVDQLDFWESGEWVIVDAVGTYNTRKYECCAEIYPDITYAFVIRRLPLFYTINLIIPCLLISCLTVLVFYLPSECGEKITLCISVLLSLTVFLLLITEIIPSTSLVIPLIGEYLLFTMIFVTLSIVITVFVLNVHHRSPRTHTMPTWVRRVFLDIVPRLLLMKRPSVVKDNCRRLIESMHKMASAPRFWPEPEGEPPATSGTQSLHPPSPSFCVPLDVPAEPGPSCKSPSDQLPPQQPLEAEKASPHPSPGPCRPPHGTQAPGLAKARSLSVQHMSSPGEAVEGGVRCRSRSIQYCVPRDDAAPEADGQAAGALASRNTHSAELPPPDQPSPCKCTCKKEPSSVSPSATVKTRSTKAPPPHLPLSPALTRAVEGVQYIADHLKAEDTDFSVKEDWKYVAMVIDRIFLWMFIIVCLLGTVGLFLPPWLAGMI
Human α4β2, sequence (P17787 26-502): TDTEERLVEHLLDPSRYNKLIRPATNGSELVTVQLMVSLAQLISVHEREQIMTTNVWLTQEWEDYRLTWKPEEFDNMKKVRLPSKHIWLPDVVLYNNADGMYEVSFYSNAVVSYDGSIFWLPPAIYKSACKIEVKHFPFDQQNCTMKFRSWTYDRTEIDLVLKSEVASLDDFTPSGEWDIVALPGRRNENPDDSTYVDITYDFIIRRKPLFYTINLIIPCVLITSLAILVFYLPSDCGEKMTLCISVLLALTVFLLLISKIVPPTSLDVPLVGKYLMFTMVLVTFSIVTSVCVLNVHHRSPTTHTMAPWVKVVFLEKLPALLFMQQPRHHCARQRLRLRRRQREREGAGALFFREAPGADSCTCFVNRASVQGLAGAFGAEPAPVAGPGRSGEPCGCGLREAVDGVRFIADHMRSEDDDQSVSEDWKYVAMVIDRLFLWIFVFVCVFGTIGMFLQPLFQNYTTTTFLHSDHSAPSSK

[1] = read-out: α7 Ki, [3H]MLA 5 nM, rat hippocampus

Row | Structure (SMILES) | Ki (α4β2 nAChR Subtype; read-out: Rat α4β2 Ki) [nM] | inhibition at 5 µM (α7 nAChR Subtype) [%] | Ki (Human α4β2) [nM] | Ki (α7 nAChR Subtype) [nM] | Ki (α4β2 nAChR Subtype; Rat α4β2 Ki) [nM] | Ki (α7 nAChR Subtype; [1]) [nM]
1 | O=C(c1ccc(F)cc1)C1C[C@H]2CNC[C@H]2C1 (mixture of isomers) [4-fluorophenyl(3-azabicyclo[3.3.0]oct-7-yl)methanone] | 321 | < 50 | 134 | – | – | –
2 | CC(C)OCC(=O)C1C[C@H]2CNC[C@H]2C1.O=C(O)C(F)(F)F (mixture of isomers) [1-(3-Azabicyclo[3.3.0]oct-7-yl)-2-isopropoxy-1-ethanone trifluoroacetate] | 427 | – | 261 | – | – | –
3 | CC(C)(C)NC(=O)C1CC2CNCC(C2)C1 (stereo not shown) [N-tert-butyl-3-azabicyclo[3.3.1]nonane-7-carboxamide] | 10.9 | < 50 | 7.1 | – | – | –
4 | O=C(c1ccco1)C1CC2CNCC(C2)C1 (stereo not shown) [2-furanyl(3-azabicyclo[3.3.1]non-7-yl)methanone] | – | – | 113 | > 10000 | – | –
5 | O=C(C1=CC2CNCC2C1)c1ccco1.O=C(O)C(F)(F)F (stereo not shown) [2-furanyl(3-azabicyclo[3.3.0]oct-6-en-7-yl)methanone trifluoroacetate] | – | – | 2 | – | 8 | –
6 | O=C(NCCF)C1CC2CNCC(C2)C1 (stereo not shown) [N-(2-fluoroethyl)-3-azabicyclo[3.3.1]nonane-7-carboxamide] | – | – | 13.5 | > 10000 | 122 | –
7 | CN(C)C(=O)[C@@H]1C[C@H]2CNC[C@H]2C1 [trans-N,N-dimethyl-3-azabicyclo[3.3.0]octane-7-carboxamide] | – | < 50 | 114 | – | 28.7 | –
8 | NC(=O)C1C[C@H]2CNC[C@H]2C1 (mixture of isomers) [3-azabicyclo[3.3.0]octane-7-carboxamide] | 394 | – | 320 | 8280 | – | –
9 | O=C(OCC1CC1)C1C[C@H]2CNC[C@H]2C1 (mixture of isomers) [cyclopropylmethyl 3-azabicyclo[3.3.0]octane-7-carboxylate] | – | – | 40.3 | > 10000 | 62.1 | –
10 | O=C(NCCCF)C1CC2CNCC(C2)C1 (stereo not shown) [N-(3-fluoropropyl)-3-azabicyclo[3.3.1]nonane-7-carboxamide] | 44.7 | < 50 | 23.2 | – | – | –
11 | NC(=O)C1CC2CNCC(C2)C1 (stereo not shown) [3-azabicyclo[3.3.1]nonane-7-carboxamide] | 40.5 | – | 76.9 | > 10000 | – | –
12 | O=C(c1occc1Br)C1C[C@H]2CNC[C@H]2C1 (mixture of isomers) [3-bromofuran-2-yl(3-azabicyclo[3.3.0]oct-7-yl)methanone] | 2.8 | < 50 | 0.9 | – | – | –
13 | COCCNC(=O)C1CC2CNCC(C2)C1 (stereo not shown) [N-(2-methoxyethyl)-3-azabicyclo[3.3.1]nonane-7-carboxamide] | 457 | < 50 | 774 | – | – | –
14 | C=CCC(C)OC(=O)C1C[C@H]2CNC[C@H]2C1 (mixture of isomers) [pent-4-en-2-yl 3-azabicyclo[3.3.0]octane-7-carboxylate] | – | – | 44.8 | – | – | > 10000
15 | CN(C)C(=O)[C@H]1C[C@H]2CNC[C@H]2C1 [cis-N,N-dimethyl-3-azabicyclo[3.3.0]octane-7-carboxamide] | – | < 50 | 1340 | – | – | –
16 | C#CCC(C)OC(=O)C1C[C@H]2CNC[C@H]2C1 (mixture of isomers) [pent-4-yn-2-yl 3-azabicyclo[3.3.0]octane-7-carboxylate] | 144 | < 50 | 68.7 | – | – | –
17 | CNC(=O)C1C[C@H]2CNC[C@H]2C1 (mixture of isomers) [N-methyl-3-azabicyclo[3.3.0]octane-7-carboxamide] | 81.4 | – | 185 | 27300 | – | –
18 | COCC(=O)C1C[C@H]2CNC[C@H]2C1.O=C(O)C(F)(F)F (mixture of isomers) [1-(3-azabicyclo[3.3.0]oct-7-yl)-2-methoxy-1-ethanone trifluoroacetate] | 32 | – | 31 | – | – | –
19 | O=C(c1ccncc1)C1C[C@H]2CNC[C@H]2C1 (mixture of isomers) [pyridin-4-yl(3-azabicyclo[3.3.0]oct-7-yl)methanone] | 43 | < 50 | 36.4 | – | – | –
20 | C=CCNC(=O)C1C[C@H]2CNC[C@H]2C1 (mixture of isomers) [N-allyl-3-azabicyclo[3.3.0]octane-7-carboxamide] | 419 | – | 176 | ≥ 10000 | – | –
21 | O=C(C1C[C@H]2CNC[C@H]2C1)N1CCC[C@H]1CO (mixture of isomers) [(S)-(2-(hydroxymethyl)-1-pyrrolidinyl)(3-azabicyclo[3.3.0]oct-7-yl)methanone] | 537 | < 50 | 271 | – | – | –
22 | O=C(NCC1CC1)C1CC2CNCC(C2)C1 (stereo not shown) [N-(cyclopropylmethyl)-3-azabicyclo[3.3.1]nonane-7-carboxamide] | 69.1 | < 50 | 92.2 | – | – | –
23 | O=C(c1ccco1)[C@H]1C[C@H]2CNC[C@H]2C1 [cis-2-furanyl(3-azabicyclo[3.3.0]oct-7-yl)methanone] | – | < 50 | 13.2 | – | 11 | –

Row | Structure (SMILES) | Ki (α4β2 nAChR Subtype; read-out: Rat α4β2 Ki) [nM] | inhibition at 5 µM (α7 nAChR Subtype) [%] | Ki (Human α4β2) [nM] | Ki (α7 nAChR Subtype) [nM] | Ki (α4β2 nAChR Subtype; Rat α4β2 Ki) [nM] | Ki (α7 nAChR Subtype; [1]) [nM]
24 | O=C(C1C[C@H]2CNC[C@H]2C1)N1CCC[C@@H]1CO (mixture of isomers) [(R)-(2-(hydroxymethyl)-1-pyrrolidinyl)(3-azabicyclo[3.3.0]oct-7-yl)methanone] | 387 | < 50 | 255 | – | – | –
25 | CC(C)NC(=O)C1CC2CNCC(C2)C1 (stereo not shown) [N-isopropyl-3-azabicyclo[3.3.1]nonane-7-carboxamide] | 82 | < 50 | 31 | – | – | –
26 | O=C(OC1CCOC1)C1C[C@H]2CNC[C@H]2C1 (stereo partly shown) [tetrahydrofuran-3-yl 3-azabicyolo[3.3.0]octane-7-carboxylate] | 129 | – | 120 | > 10000 | – | –
27 | O=C(NCc1ccccc1)C1CC2CNCC(C2)C1 (stereo not shown) [N-benzyl-3-azabicyclo[3.3.1]nonane-7-carboxamide] | 885 | < 50 | 9 | – | – | –
28 | C=CCNC(=O)C1CC2CNCC(C2)C1 (stereo not shown) [N-allyl-3-azabicyclo[3.3.1]nonane-7-carboxamide] | 30.6 | < 50 | 4.3 | – | – | –
29 | O=C(Nc1cccnc1)C1CC2CNCC(C2)C1 (stereo not shown) [N-(pyridin-3-yl)-3-azabicyclo[3.3.1]nonane-7-carboxamide] | – | < 50 | 46.8 | – | – | –
30 | CN(C)C(=O)C1CC2CNCC(C2)C1 (stereo not shown) [N,N-dimethyl-3-azabicyclo[3.3.1]nonane-7-carboxamide] | – | – | 54 | > 10000 | 78 | –
31 | NCCNC(=O)C1CC2CNCC(C2)C1 (stereo not shown) [N-(2-aminoethyl)-3-azabicyclo[3.3.1]nonane-7-carboxamide] | – | < 50 | 52.4 | – | – | –
32 | O=C(OCC1CCOC1)C1C[C@H]2CNC[C@H]2C1 (mixture of isomers) [(tetrahydrofuran-3-yl)methyl 3-azabicyclo[3.3.0]octane-7-carboxylate] | 111 | < 50 | 47.7 | – | – | –
33 | O=C(OCCF)C1C[C@H]2CNC[C@H]2C1 (mixture of isomers) [2-fluoroethyl 3-azabicyclo[3.3.0]octane-7-carboxylate] | 55.1 | < 50 | 102 | – | – | –
34 | O=C(NC1CC=CC1)C1CC2CNCC(C2)C1 (stereo not shown) [N-(3-cyclopentenyl)-3-azabicyclo[3.3.1]nonane-7-carboxamide] | 45.3 | < 50 | 24.3 | – | – | –
35 | CCC(C)NC(=O)C1CC2CNCC(C2)C1 (stereo not shown) [N-sec-butyl-3-azabicyclo[3.3.1]nonane-7-carboxamide] | 272 | – | 42.8 | – | – | > 10000
36 | CC(=O)C1C[C@H]2CNC[C@H]2C1 (mixture of isomers) [1-(3-azabicyclo[3.3.0]oct-7-yl)-1-ethanone] | 7.3 | – | 10.7 | – | – | > 10000
37 | CC(C)C(=O)C1C[C@H]2CNC[C@H]2C1 (mixture of isomers) [1-(3-azabicyclo[3.3.0]oct-7-yl)-2-methyl-1-propanone] | – | – | 0.2 | 2380 | 0.3 | –
38 | COC(=O)C1=CC2CNCC2C1.Cl (stereo not shown) [methyl 3-azabicyclo[3.3.0]-oct-6-ene-7-carboxylate hydrochloride] | 5 | – | 2 | – | – | –
39 | O=C(NCC(F)(F)F)C1C[C@H]2CNC[C@H]2C1.O=C(O)C(F)(F)F (mixture of isomers) [N-(2,2,2-trifluoroethyl)-3-azabicyclo[3.3.0]octane-7-carboxamide trifluoroacetate] | – | – | 261 | – | – | –
40 | O=C(CF)C1CC2CNCC2C1 (single isomer, unassigned; isomer 1) [1-(3-azabicyclo[3.3.0]oct-7-yl)-2-fluoro-1-ethanone trifluoroacetate cis isomer, 1-(3-azabicyclo[3.3.0]oct-7-yl)-2-fluoro-1-ethanone trifluoroacetate] | 6.8 | – | 6.3 | – | – | –
41 | O=C(CF)C1CC2CNCC2C1 (single isomer, unassigned; isomer 1) [1-(3-azabicyclo[3.3.0]oct-7-yl)-2-fluoro-1-ethanone trifluoroacetate] | 154 | – | 176 | – | – | –
42 | CC1COCC(C)N1C(=O)C1=C[C@@H]2CNC[C@@H]2C1 (stereo partly shown) [(3-azabicyclo[3.3.0]oct-6-en-7-yl)(2,6-dimethylmorpholin-1-yl)methanone] | – | < 50 | 1710 | – | – | –
43 | O=C(OC1CCC1)C1C[C@H]2CNC[C@H]2C1 (mixture of isomers) [cyclobutyl 3-azabicyclo[3.3.0]octane-7-carboxylate] | – | – | 80.6 | > 10000 | – | –
44 | O=C(Nc1ccccc1)C1CC2CNCC(C2)C1 (stereo not shown) [N-phenyl-3-azabicyclo[3.3.1]nonane-7-carboxamide] | – | < 50 | 12.7 | – | – | –
45 | CC(C)C(=O)C1CC2CNCC(C2)C1 (stereo not shown) [1-(3-azabicyclo[3.3.1]non-7-yl)-2-methyl-1-propanone] | – | – | 78.9 | > 10000 | – | –
